According to patent US7381714B2, “A1 adenosine receptor agonists” (CV Therapeutics, Inc., priority 2005, dated 2008):
pKi: −log10 of the molar value.

Experiments:
[1] = cited from earlier work
A1 adenosine receptor = molecular target: T1, A1 adenosine receptor (Mesocricetus auratus, UniProt A0A1U8BVR4); assay: Competitive radioligand binding assay, DDT cell membranes; set-up: species or system hamster; details: membranes of DDT cells; tritiated radioligand 1.5 nM; 23° C. 90 minutes; read-out: A1 BINDING AFFINITY Ki
T1 sequence (A0A1U8BVR4 1-326): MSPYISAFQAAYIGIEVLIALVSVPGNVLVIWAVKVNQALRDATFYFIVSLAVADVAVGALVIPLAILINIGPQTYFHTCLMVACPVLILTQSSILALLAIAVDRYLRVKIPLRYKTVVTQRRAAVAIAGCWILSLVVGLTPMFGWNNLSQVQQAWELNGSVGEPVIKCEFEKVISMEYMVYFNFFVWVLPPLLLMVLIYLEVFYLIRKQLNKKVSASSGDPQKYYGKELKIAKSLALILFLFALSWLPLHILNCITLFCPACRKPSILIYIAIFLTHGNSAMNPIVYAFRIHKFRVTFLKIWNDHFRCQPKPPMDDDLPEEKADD
Description: DDT cells (hamster vas deferens smooth muscle cell line) were grown as monolayers in petri dishes using Dulbecco's Modified Eagle's Medium (DMEM) containing 2.5 μg mL^−1 amphotericin B, 100 U mL^−1 penicillin G, 0.1 mg mL^−1 streptomycin sulfate and 5% fetal bovine serum in a humidified atmosphere of 95% air and 5% CO2. Cells were subcultured twice weekly by dispersion in Hank's Balanced Salt Solution (HBSS) without the divalent cations and containing 1 mM EDTA. The cells were then seeded in growth medium at a density of 1.2×10^5 cells per plate and experiments were performed 4 days later at approximately one day preconfluence.
Attached cells were washed twice with HBSS (2×10 mL), scraped free of the plate with the aid of a rubber policeman in 5 mL of 50 mM Tris-HCl buffer pH 7.4 at 4° C. and the suspension was homogenized for 10 s. The suspension was then centrifuged at 27,000×g for 10 min. The pellet was resuspended in homogenization buffer by vortexing and centrifuged again as described above. The final pellet was resuspended in 1 vol of 50 mM Tris-HCl buffer pH 7.4 containing 5 mM MgCl2 for A1 adenosine receptor assays. For the [^35S]GTPγS binding assay the final pellet was resuspended in 50 mM Tris-HCl pH 7.4 containing 5 mM MgCl2, 100 mM NaCl and 1 mM dithiothreitol. This membrane suspension was then placed in liquid nitrogen for 10 min and stored at −80° C. Aliquots of the membrane suspension were later thawed and used for assays. The protein content was determined with a BradfordTm Assay Kit using bovine serum albumin as standard.
Compounds of Formula I were assayed by use of competitive radioligand binding methods to determine their affinity for the A1 adenosine receptor sites on the membranes of DDT cells. […] The amount of radioactivity retained on the filters was determined by liquid scintillation spectrometry. […]

| Structure (SMILES) | half-life [1] | pKi (A1 adenosine receptor) |
| --- | --- | --- |
| Nc1ncnc2c1ncn2[C@@H]1O[C@H](CO)[C@@H](O)[C@H]1O [adenosine] | less than 10 sec |  |
| CNC(=O)c1cn(-c2nc(NC3CCCC3)c3ncn([C@@H]4O[C@H](CO)[C@@H](O)[C@H]4O)c3n2)nn1 [III., (1-{9-[(4S,3R,5R)-3,4-dihydroxy-5-(hydroxymethyl)oxolan-2-yl]-6-(cyclopentylamino)purin-2-yl}(1,2,3-triazol-4-yl))-N-methylcarboxamide] |  | 8.70 |
| NC(=O)c1cn(-c2nc(NC3CCCC3)c3ncn([C@@H]4O[C@H](CO)[C@@H](O)[C@H]4O)c3n2)nn1 [IV., 1-{9-[(4S,3R,5R)-3,4-dihydroxy-5-(hydroxymethyl)oxolan-2-yl]-6-(cyclopentylamino)purin-2-yl}-1,2,3-triazole-4-carboxamide] |  | 7.80 |
| CCOC(=O)c1cn(-c2nc(NC3CCCC3)c3ncn([C@@H]4O[C@H](CO)[C@@H](O)[C@H]4O)c3n2)nn1 [II., ethyl 1-{9-[(4S,3R,5R)-3,4-dihydroxy-5-(hydroxymethyl)oxolan-2-yl]-6-(cyclopentylamino)purin-2-yl}-1,2,3-triazole-4-carboxylate] |  | 8.52 |
